Molecular target: T1, human androgen receptor (Homo sapiens, UniProt P10275)
T1 construct: host or cells: MCF-7 cytosol (endogenous) or CHO cells transfected with hAR
T1 sequence (P10275 1-920): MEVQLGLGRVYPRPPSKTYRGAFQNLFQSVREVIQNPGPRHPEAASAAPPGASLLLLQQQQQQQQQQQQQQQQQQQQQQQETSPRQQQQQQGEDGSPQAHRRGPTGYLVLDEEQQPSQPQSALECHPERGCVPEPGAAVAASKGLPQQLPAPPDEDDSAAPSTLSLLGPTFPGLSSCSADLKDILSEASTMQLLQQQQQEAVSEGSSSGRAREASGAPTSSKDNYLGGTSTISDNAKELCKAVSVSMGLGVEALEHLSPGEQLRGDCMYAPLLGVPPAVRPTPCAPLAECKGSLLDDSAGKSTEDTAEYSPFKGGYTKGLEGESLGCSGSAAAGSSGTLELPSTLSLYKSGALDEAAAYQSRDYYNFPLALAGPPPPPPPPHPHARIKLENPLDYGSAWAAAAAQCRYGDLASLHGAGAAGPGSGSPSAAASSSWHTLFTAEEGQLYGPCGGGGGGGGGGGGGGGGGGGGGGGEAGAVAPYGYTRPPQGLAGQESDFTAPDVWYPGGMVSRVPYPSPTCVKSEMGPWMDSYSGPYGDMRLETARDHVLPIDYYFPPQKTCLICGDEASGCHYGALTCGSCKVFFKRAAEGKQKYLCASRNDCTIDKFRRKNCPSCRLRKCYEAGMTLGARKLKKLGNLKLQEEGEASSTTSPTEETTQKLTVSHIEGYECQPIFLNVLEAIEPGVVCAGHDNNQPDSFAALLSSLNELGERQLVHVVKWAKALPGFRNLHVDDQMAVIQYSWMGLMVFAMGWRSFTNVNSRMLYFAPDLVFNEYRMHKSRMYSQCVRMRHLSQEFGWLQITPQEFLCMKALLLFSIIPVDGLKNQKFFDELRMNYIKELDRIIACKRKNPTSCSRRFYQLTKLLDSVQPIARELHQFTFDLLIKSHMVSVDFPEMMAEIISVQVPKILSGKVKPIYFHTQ
Experiment: androgenic activity rating (procedures described above; which one underlies the rating is not stated)
Set-up: key: +: androgenic activity found; ++: high androgenic activity; +++: excellent androgenic activity
Protocol: Androgenic activity can be measured in various ways. Thus, the potency of androgens can be determined in vitro using the cytoplasmic androgen receptor from human breast tumor cells (MCF-7 cell line); see Bergink, E. W. et al, Comparison of the receptor binding properties of nandrolone and testosterone under in vitro and in vivo conditions, J. Steroid Biochem. 22, 831-836 (1985). It is also possible to use Chinese hamster ovary (CHO) cells transfected with the human androgen receptor (incubation time 16 h, temperature 4° C.) and compared with the affinity of 5α-dihydrotestosterone [according to the procedure described by Bergink, E. W. et al, J. Steroid Biochem. 12, 1563-1570 (1983)]. The transactivative androgen activity of the compounds of the invention can be measured, e.g. in Chinese hamster ovary cells (CHO) transfected with the human androgen receptor (hAR), in combination with a mouse mammary tumor virus (MMTV), and luciferase […] (incubation time 16 h, temperature 37° C.) and compared with the activity of 5α-dihydrotestosterone [according to the procedure described by Schoonen, W. G. E. J. et al, Analyt. Biochem. 261, 222-224 (1998)]. For the in vivo potency determination of androgens the classical Hershberger test can be used. In this test the androgenic (increase in prostate weight) and anabolic activities [increase of the musculus levator ani (MLA)] of a compound are tested in immature castrated rats after daily administration for 7 days; see Hershberger, L. G. et al, Myotrophic activity of 19-Nortestosterone and other steroids determined by modified levator ani muscle method, Proceedings of the society for experimental biology and medicine 83, 175-180 (1953). Additionally, the effect of an androgenic compound on LH suppression can be tested in mature castrated rats according to Kumar, N. et al, The biological activity of 7alpha-methyl-19-nortestosterone is not amplified in male reproductive tract as is that of testosterone, Endocrinology 130, 3677-3683 (1992).
A plurality of compounds according to the invention were tested for androgenic activity (the procedures for which have been described above) and rated in the Table below according to the following scheme: • + androgenic activity found; • ++ high androgenic activity; • +++ excellent androgenic activity; • nd no data available

SMILES	Rating (androgenic activity)
C[C@@H]1CC2=CC(=O)CC[C@@H]2[C@H]2CC[C@@]3(C)[C@H](C=C[C@H]3CO)[C@@H]21 [Example 5, (7α,14β,17α)-17-(hydroxymethyl)-7-methylestra-4,15-dien-3-one]	+++
C[C@@H]1CC2=CC(=O)CC[C@@H]2[C@H]2CC[C@]3(C)[C@H](CO)C[C@@H](C)[C@@H]3[C@@H]21 [Example 7, (7α,14β,15β,17α)-17-(Hydroxymethyl)-7,15-dimethylestr-4-en-3-one]	+
C#C[C@@H](O)[C@@H]1CC[C@@H]2[C@H]3[C@H](CC[C@@]21C)[C@H]1CCC(=O)C=C1C[C@H]3C [Example 18d, [7α,14β,17α(S)]-17-(1-Hydroxy-2-propynyl)-7-methylestr-4-en-3-one]	+
C[C@@H]1CC2=CC(=O)CC[C@@H]2[C@H]2CC[C@]3(C)[C@H](CO)CC[C@]3(C)[C@@H]21 [Example 6, (7α,14β,17α)-17-(Hydroxymethyl)-7,14-dimethylestr-4-en-3-one]	++
CCCC[C@H]1CC[C@H](C(=O)OC[C@@H]2CC[C@@H]3[C@H]4[C@H](CC[C@]23C)[C@H]2CCC(=O)C=C2C[C@H]4C)CC1 (relative stereo) [Example 33d, (7α,14β,17α)-17-[[[(trans-4-Butylcyclohexyl)carbonyl]oxy]methyl]-7-methylestr-4-en-3-one]	+
CC1CC2=CC(=O)CCC2C2CCC3(C)C(CCC3C(C)(C)O)C12 (stereo not drawn) [Example 19, (7α,14β,17α)-20-Hydroxy-7,20-dimethyl-19-norpregn-4-en-3-one]	+
CC(O)C1C2CC2C2C3C(C)CC4=CC(=O)CCC4C3CCC12C [Example 20b, (7α,14β,15β,16β,17α,20R)-20-Hydroxy-7-methyl-15,16-methylene-19-norpregn-4-en-3-one]	+
CC(O)C1CCC2C3CCC4=CC(=O)CCC4C3CCC12C [Example 24b, (14β,17α,20R)-20-Hydroxy-19-norpregn-4-en-3-one]	+
CCC12CCC3C4CCC(=O)C=C4CCC3C1CCC2C(C)O [Example 32a, (14β,17α,20S)-13-Ethyl-20-hydroxy-18,19-dinorpregn-4-en-3-one]	+
CCC(O)[C@@H]1CC[C@@H]2[C@@H]3CCC4=CC(=O)CC[C@@H]4[C@H]3CC[C@@]21C (stereo partly drawn) [Example 25b, [14β,17α(R)]-17-(1-Hydroxypropyl)estr-4-en-3-one]	+
C=CC[C@@H](O)[C@@H]1CC[C@@H]2[C@H]3[C@H](CC[C@@]21C)[C@H]1CCC(=O)C=C1C[C@H]3C [Example 18h, (7α,14β,17α,20R)-20-Hydroxy-7-methyl-19,21-dinorchola-4,23-dien-3-one]	+
C[C@@H]1CC2=CC(=O)CC[C@@H]2[C@H]2CC[C@]3(C)[C@H](CO)CC[C@@H]3[C@@H]21 [Example 4, (7α,14β,17α)-17-(Hydroxymethyl)-7-methylestr-4-en-3-one]	+++
C[C@@H]1CC2=C/C(=N/O)CC[C@@H]2[C@H]2CC[C@]3(C)[C@H](CO)CC[C@@H]3[C@@H]21 [Example 36a, (3E,7α,14β,17α)-3-(Hydroxyimino)-7-methylestr-4-ene-17-methanol]	+
C[C@@H]1CC2=CC(=O)CC[C@@H]2[C@H]2CC[C@@]3(C)[C@H](CC[C@]3(F)CO)[C@@H]21 [Example 12, (7α,14β,17α)-17-Fluoro-17-(hydroxymethyl)-7-methylestr-4-en-3-one]	+++
C[C@]12CCC3=C4CCC(=O)C=C4CC[C@H]3[C@H]1CC[C@H]2CO [Example 3, (14β,17α)-17-(Hydroxymethyl)estra-4,9-dien-3-one]	+
CC(O)C1CCC2C3CCC4=CC(=O)CCC4=C3CCC12C [Example 27b, (14β,17α,20R)-20-Hydroxy-19-norpregna-4,9-dien-3-one]	+
CCC1CC2(C)C(C(C)O)CCC2C2CCC3=C(CCC(=O)C3)C12 [Example 28a, (11β,14β,17α,20S)-11-Ethyl-20-hydroxy-19-norpregn-5(10)-en-3-one]	+
C[C@@H]1CC2=C[C@@H](O)CC[C@@H]2[C@H]2CC[C@]3(C)[C@H](CO)CC[C@@H]3[C@@H]21 [Example 34, (3β,7α,14β,17α)-17-(Hydroxymethyl)-7-methylestr-4-en-3-ol]	++
CC(O)C1CCC2C3CCC4=CC(=O)CCC4=C3CCC12C [Example 27a, (14β,17α,20S)-20-Hydroxy-19-norpregna-4,9-dien-3-one]	++
CC(O)C1CCC2C3CCC4=CC(=O)CCC4C3CCC12C [Example 24a, (14β,17α,20S)-20-Hydroxy-19-norpregn-4-en-3-one]	++
CCC1CC2(C)C(C(C)O)CCC2C2CCC3=CC(=O)CCC3C12 [Example 29a, (11β,14β,17α,20S)-11-Ethyl-20-hydroxy-19-norpregn-4-en-3-one]	+
CCCCCCCCCCC(=O)OC[C@@H]1CC[C@@H]2[C@H]3[C@H](CC[C@]12C)[C@H]1CCC(=O)C=C1C[C@H]3C [Example 33c, (7α,14β,17α)-7-Methyl-17-[[(1-oxoundecyl)oxy]methyl]estr-4-en-3-one]	+
C#C[C@H](O)[C@@H]1CC[C@@H]2[C@H]3[C@H](CC[C@@]21C)[C@H]1CCC(=O)C=C1C[C@H]3C [Example 18c, [7α,14β,17α(R)]-17-(1-Hydroxy-2-propynyl)-7-methylestr-4-en-3-one]	+
CC(O)C1CCC2C3C(C)CC4=CC(=O)CCC4C3CCC12C [Example 16b, (7α,14β,17α,20R)-20-Hydroxy-7-methyl-19-norpregn-4-en-3-one]	+
C=C[C@@H]1CC2=CC(=O)CC[C@@H]2[C@H]2CC[C@]3(C)[C@H](CO)CC[C@@H]3[C@@H]21 [Example 15, (7α,14β,17α)-7-Ethenyl-17-(hydroxymethyl)estr-4-en-3-one]	++
C[C@@H]1CC2=CC(=O)CC[C@@H]2[C@H]2CC[C@@]3(C)[C@H](C[C@H](C)[C@H]3CO)[C@@H]21 [Example 9, (7α,14β,16β,17α)-17-(Hydroxymethyl)-7,16-dimethylestr-4-en-3-one]	++
C[C@@H]1CC2=CC(=O)CC[C@@H]2[C@H]2CC[C@@]3(C)[C@H]([C@@H]4C[C@@H]4[C@H]3CO)[C@@H]21 [Example 10, (7α,14β,15β,16β,17α)-17-(Hydroxymethyl)-7-methyl-15,16-methyleneestr-4-en-3-one]	++
C[C@]12CC[C@H]3[C@@H](CCC4=CC(=O)CC[C@@]43C)[C@H]1CC[C@H]2CO [Example 22b, (14β,17α)-17-(Hydroxymethyl)androst-4-en-3-one]	+
C=CCC(O)C1CCC2C3C(C)CC4=CC(=O)CCC4C3CCC12C [Example 18g, (7α,14β,17α,20S)-20-Hydroxy-7-methyl-19,21-dinorchola-4,23-dien-3-one]	+
CCC[C@H](O)[C@@H]1CC[C@@H]2[C@@H]3CCC4=CC(=O)CC[C@@H]4[C@H]3CC[C@@]21C [Example 25c, (14β,17α,20S)-20-Hydroxy-19,21-dinorchol-4-en-3-one]	+

From US6881728B1, “14-β, 17-α-hydroxymethylandrostane derivatives as androgens” (Akzo Nobel N.V., priority 1999, dated 2005)
